From EP0091181A2, “Aroyl pyrrolizine compounds, process for their preparation and pharmaceutical compositions containing them” (BEECHAM GROUP PLC, priority 1982, dated 1983) come the findings set out here.

One data set relates to OLAC Wistar female rats. The data set can be described thus: Gastric irritancy test. Format: in vivo. Particulars: fasted rats, stomachs inspected 4 hours later. The procedure: (§1) 2. Gastric Irritancy Test
(§2) Groups of OLAC Wistar female rats (130 - 160 g) were fasted overnight (18 hours) before receiving orally the compound of Example 1. 4 Hours later the stomachs were removed and inspected for the presence of erosion of the gastric mucosa.

A further data set in a line: Gastric irritancy test. Format: in vivo, rats. Particulars: rat, in vivo, po. The procedure: as §1, §2
A further data set relates to OLAC Wister male rats. The data set can be described thus: Carrageenin test (rat paw oedema). It is filed as in vivo. Particulars: for Paw volume ± s.e. / % Inhi-bition: paw volume 3 hours after carrageenin; for Paw volume ± s.e.: control 85.8 ± 9.4. The procedure: 1. Activity in the Carrageenin Test
(§3) Groups of 8 OLAC Wister male rats (140 - 170 g) received the compound of Example 1 orally 1 hour before 0.1 ml of 0.5% λ carrageenin injected into the right hind paw. Paw volumes were measured by mercury displacement 3 hours after carrageenin.

Data set [1] can be described thus: Therapeutic ratio from the carrageenin test and the gastric irritancy test. Format: in vivo, rats. Particulars: from the two tests (gastric irritancy ED50 / carrageenin ED25). The procedure: as §3, §2
From these two tests the therapeutic ratio for the compound of formula (EI) was 41.0.

Consider `CC(=O)CC1CCn2c(C(=O)c3ccccc3)ccc21` (centres unmarked) [Example 1, 1-(5-Benzoyl-2-3-dihydro-1H-pyrrolazin-1-yl)-propan-2-one], for which the “Proportion of rats with gas-tric erosions” value with OLAC Wistar female rats (oral dose 3.7 mg/kg) is recorded as 0/8; in the data set with OLAC Wistar female rats (oral dose 11.2 mg/kg), 1/8; in the data set on OLAC Wistar female rats (oral dose 33.6 mg/kg) it was 4/8. In addition, the TD50 at 4 h in the data set “Gastric irritancy test” was found to be 30.8 mg/kg. In addition, the ED25 in the data set on OLAC Wister male rats (Rattus norvegicus, oral, carrageenin paw volume, rats) was found to be 0.75 mg/kg. Further, the “Paw volume ± s.e.” value in the data set on OLAC Wister male rats (oral dose 0.1 mg/kg 1 hour before carrageenin) is 92.6 ± 4.6; in the data set with OLAC Wister male rats (oral dose 0.5 mg/kg 1 hour before carrageenin), 73.4 ± 7.8. For the same molecule, the “% Inhi-bition” value in the data set on OLAC Wister male rats (oral dose 0.1 mg/kg) was -8.0%; with OLAC Wister male rats (oral dose 0.5 mg/kg), 14.4%; in the data set with OLAC Wister male rats (oral dose 2.5 mg/kg), 47.4%. For the same molecule, in data set [1], the therapeutic ratio was found to be 41.0.
